In patent publication US11679113B2, “Anticancer treatment for uveal melanoma” (The Regents of the University of California, priority 2019, dated 2023):
“Also recorded” adds a separate entry of the source. Numbered stars: 1 amine (or outer) side, 2 acyl side, 3 side chain; on linkers, the order of the positions; unused ones are H or OH. Bridge positions count the residues as written; N and C are the ends. Square brackets hold non-standard residues; d marks the D form. Peptide text beside a SMILES is read from it. * marks the point of attachment. Leu(3R-OH,Nα-propionyl) = CCC(=O)N[C@H](C(=O)*)[C@H](O)C(C)C; X1 = CC(C)[C@@H](O[*:3])[C@H](N[*:1])C(=O)[*:2]; NMeT = CN[C@H](C(=O)O)[C@@H](C)O; dPhLac = O=C(O)[C@H](O)Cc1ccccc1; NMeA = CN[C@@H](C)C(=O)O; NMeDha = C=C(NC)C(=O)O

How the values were obtained:
FAK [1] = experiment: Immunoblot of FAK phosphorylation in Gαq-DREADD expressing HEK293 cells stimulated with CNO; format: cell-based, human; settings: CNO stimulation, 1 hr pre-treatment
Experimental: (§1) Western blot assays were performed as described previously (Feng et al., 2014b). Western blots were developed using Immobilon Western Chemiluminescent HRP substrate (Millipore, MA) according to the manufacturer's instructions.

FAK [2] = experiment: Immunoblot of FAK phosphorylation (pY397-FAK) in UM cells; format: cell-based, human; settings: OMM1.3 / Mel270 cells
Experimental: as §1

OMM1.3 cells [3] = experiment: Colony formation assay in semisolid media (3D culture); format: cell-based, human; settings: OMM1.3, semisolid media
Experimental: 3-dimensional cultures were performed as described previously (Tancioni et al., 2015). Briefly, 10,000 cells were embedded in 1% methylcellulose diluted in growth media and plated onto 6-well poly-hydroxyethyl methacrylic acid (poly-HEMA)-coated plates.

YAP-signature genes = experiment: RNA-seq and Gene Set Enrichment Analysis of UM cells treated with FAKi; format: cell-based, human; settings: OMM1.3, 1 μM, 2 hr
Text: FAK is at the intersection of multiple signaling pathways that promote cancer progression (Sulzmaier et al., 2014), but it is not clear which downstream targets of FAK play a critical role in UM. As an approach to identify key downstream targets of the Gαq− FAK signaling axis, Applicant performed transcriptomic RNA-sequencing on UM cells treated with FAKi (i.e., FAK inhibitor), and performed Gene Set Enrichment Analysis (GSEA) (Subramanian et al., 2005) to characterize the transcriptional effects of inhibiting Gαq and FAK at the pathway level using over 10,000 gene sets from the MSigDB (Molecular Signatures Database), including two sub-collections of oncogenic signatures and hallmark gene sets that Applicants added to the database (Liberzon et al., 2015). […] These include the downregulation of genes described as stimulated by KRAS and EGFR and cytokines such as IL21 and IL15, consistent with the likely role in the activation of growth promoting pathways by FAK (Sulzmaier et al., 2014). […] In both cases, FAK inhibition or knockdown reduced YAP pY357 and increased pS127, and reduced mRNA levels of YAP targets and YAP activity measured by luciferase reporter assay (FIGS. 7A-7E), similar to UM cells.

YAP = YAP nuclear/cytoplasmic localization (immunofluorescence, fractionation western blot) in UM cells; format: cell-based, human; settings: OMM1.3, 1 μM
Experimental: Cells cultured on coverslips were washed with PBS, fixed with 3.7% formaldehyde in phosphate-buffered saline (PBS) for 30 min, and permeabilized using 0.05% Triton X-100 for 10 min. Fixed cells were blocked with 3% FBS-containing PBS for 30 min, and incubated with YAP (Cell signaling technology, MI) antibody (in 3% FBS-PBS otherwise stated) for 1 hr at room temperature. The reaction was visualized with Alexa-labeled secondary antibodies (Invitrogen, CA). Samples were mounted in PBS buffer containing Hoechst 33342 (Molecular Probes, OR) for nuclear staining. Images were acquired with an Axio Imager Z1 microscope equipped with ApoTome system controlled by ZEN 2012 software (Carl Zeiss, NY).
Subcellular fractionated lysates were generated using NE-PER Nuclear and Cytoplasmic Extraction Reagents (Thermo Scientific, CO) following manufacturer instructions.

[4] = tested on: SK-MEL-28 cells (BRAF mutant SKCM); experiment: Cell viability assay in SKCM control cell line; format: cell-based, human
Experimental: (§2) HEK293 and HEK293T cells were cultured in DMEM (Sigma-Aldrich Inc., MO) containing 10% FBS (Sigma-Aldrich Inc., MO) and 1× antibiotic/antimycotic solution (Sigma-Aldrich Inc., MO). Culture conditions for UM cells (OMM1.3, OMM1.5, MEL202, Mel270 and 92.1) have been described elsewhere (Schmitt et al., 2007; Zuidervaart et al., 2005). SK-MEL-28 cells were purchased from ATCC and cultured following ATCC recommendations in EMEM containing 10% FBS. VS-4718 (PND-1186) was purchased from MedChemExpress (MCE) pre-prepared as a 10 mM solution in DMSO. FR900359 (FR) was graciously supplied by the lab of Dr. Evi Kostenis.
(§3) Cell growth assays were performed as described previously (Yamaguchi et al., 2016). Cells were cultured in 96-well-plate and treated with drugs for 72 hr. The manufacturer's instructions of Alamar Blue Cell Viability Reagent were followed to complete the assay.

[5] = tested on: UM cell lines (92.1, OMM1.3, OMM1.5, Mel270, Mel202; GNAQ mutant); experiment: Cell viability assay (Alamar Blue) in UM cell lines; format: cell-based, human
Experimental: as §2, §3

OMM1.3 cells [6] = experiment: Immunoblot of cleaved PARP (apoptosis) in UM cells; format: cell-based, human; settings: OMM1.3, 36 hr
Experimental: as §1

UM tumor xenografts = experiment: Human UM tumor xenografts (Mel270, OMM1.3) with VS-4718 in vivo treatment; design: species or system mice
Experimental: All animal studies were carried out according the University of California San Diego (UCSD) Institutional Animal Care and Use Committee (IACUC)-approved protocol (S15195). Female NOD.Cg-Prkdcscid Il2rgtm1wjl/SzJ mice (commonly known as […], Jackson Laboratory, Maine), 6 to 8 weeks of age and weighing 18 to 20 g, were used in the study of UM cells, housed in appropriate sterile filter-capped cages, and provided food and water ad libitum. All procedures were essentially as previously described (Feng et al., 2014b; Schrage et al., 2015; Vaque et al., 2013). Briefly, exponentially growing cultures were harvested, washed, resuspended in RPMI 1640, and 2×10^6 viable cells were transplanted subcutaneously into the flanks of mice. For tumor growth analysis, tumor volume was assessed as [(LW^2/2); where L and W represent the length and the width of the tumor]. The animals were monitored twice weekly for tumor development. Results of animal experiments were expressed as mean±SEM of a total of tumors analyzed. To administer VS-4718 (Verastem Oncology; Needham, Mass.) to mice, 10 mg/ml VS-4718 was prepared in 0.5% carboxymethyl cellulose (CMC) (C5678, Sigma-Aldrich; St. Louis, Mo.) 0.1% Tween 80 (P1754, Sigma Aldrich; St. Louis, Mo.) in sterile water, 100 mg/kg administered via oral gavage twice daily, control group was treated with vehicle.
The following antibodies were used for immunohistochemistry anti-Ki67 (DAKO) and anti-YAP (CST). Unstained 5 μm paraffin sections were dewaxed in Safeclear II (Fisher Scientific, PA), hydrated through graded alcohols and distilled water, and washed three times with PBS. Antigens were retrieved using or 10 mM citrate buffer boiled in a microwave for 20 min (2 min at 100% power and 18 min at 10% power). The slides were allowed to cool down for 30 min at room temperature, rinsed twice with PBS, incubated in 3% hydrogen peroxide in PBS for 10 min to quench the endogenous peroxidase. […]

92.1 xenograft = experiment: 92.1 OM xenografts treated with MEKi, FAKi or both; format: in vivo, mice; settings: 92.1 xenografts; trametinib 1 mg/kg QD i.p., VS-4718 50 mg/kg BID p.o.
Text: FIGS. 17A and 17B show potent antitumoral and cytotoxic effects of FAKi/MEKi combination in OM xenografts. […] (FIG. 17B) Quantification of IHC tumor sections stained for BrdU, cleaved-caspase3 (Cl-Casp3), pERK1/2, and YAP. For each panel, the bars from left to right are control, MEKi, FAKi and MEKi+FAKi. Data are mean±SEM (7 mice/group), *p<0.05;**p<0.01; ***p<0.001; n. s. not significant.

[7] = tested on: YAP-target genes CTGF and CYR61; experiment: qPCR of YAP-target genes CTGF and CYR61 in UM cells; format: cell-based, human; settings: 1 μM, 2 hr
[8] = tested on: Hippo pathway components (YAP, LATS1, MOB1, MST1); experiment: Immunoblot / immunoprecipitation of YAP and Hippo pathway components in UM cells; format: cell-based, human
Experimental: as §1
Cells were lysed with IP lysis buffer [10 mM Tris-Cl (pH 8.0), 150 mM NaCl, 1 mM EDTA, 0.3% CHAPS, 50 mM NaF, 1.5 mM Na3VO4, protease inhibitor (Thermo Scientific, CO), 1 mM DTT, 1 mM PMSF], and centrifuged at 16,000 g for 5 min at 4° C. Supernatants were incubated with first antibody for 1 hr at 4° C., and protein G or protein A conjugated resin for another 1 hr. Resins were then washed 3 times with lysis buffer and boiled in SDS-loading buffer.

[9] = after prolonged use; cited from earlier work
ERK [10] = experiment: Immunoblot of ERK phosphorylation in Gαq-DREADD expressing HEK293 cells stimulated with CNO; format: cell-based, human; settings: CNO stimulation, 1 hr pre-treatment
Experimental: as §1

ERK [11] = experiment: Immunoblot of ERK phosphorylation in UM cells; format: cell-based, human; settings: OMM1.3 cells
Experimental: as §1

OM cells = experiment: FAKi/MEKi combination cell viability, synergy by Chou-Talalay CI and Bliss score; format: cell-based, human
Text: Applicant performed detailed combinatorial analysis achieving ERK pathway inhibition by a clinical MEK inhibitor, trametinib, combined with FAKi (VS-4718) at a series of dilutions of drug combinations. Drug combinations scored as synergistic (i. e., > than additive) are identified by using the most widely used methodologies: the Chou-Talalay combination index (CI) (Chou, 2010; Chou, 1984; and Chou, 2006) and the Bliss independence score (ΔBliss) (Chou, 2010; Chou, 2006; Berenbaum, 1989; Greco, 1995; and Geary, 2013) as Applicant recently described (Yamaguchi et al., 216).

C[C@@H](N)[C@H]1CC[C@H](C(=O)Nc2ccncc2)CC1 [Y-27632]
FAK activation by Gαq-DREADD in HEK293 cells (FAK [1]): repressed FAK activation | FAK activation (pY397-FAK) in UM cells (FAK [2]): repressed FAK activation

CNC(=O)c1ccccc1Nc1cc(Nc2ccc(N3CCOCC3)cc2OC)ncc1C(F)(F)F [VS-4718]
colony formation ability of UM cells (OMM1.3 cells [3]): nearly abolished the colony formation ability | expression of YAP-signature genes (RNA-seq, GSEA) (YAP-signature genes): significant downregulation | YAP nuclear accumulation (YAP): clearly diminished | EC50 ([4]; Homo sapiens, SK-MEK-28 (BRAF mutant), control): > 10 µM | EC50 ([5]; Homo sapiens, 92.1, OMM1.3, OMM1.5, Mel270, Mel202, 72 hr, read-out: EC50, sensitivity of UM cell lines to FAK inhibition (cell viability)): ~1 µM | cleaved PARP (UM apoptosis) (OMM1.3 cells [6]): accumulation of cleaved PARP; also recorded: increased cleaved PARP | cytoplasmic retention of YAP in tumors (UM tumor xenografts; Mel270 tumors): clearly increased | cell proliferation in UM tumors (Ki67) (UM tumor xenografts; two UM tumor models (Mel270, OMM1.3)): reduces | UM tumor size (UM tumor xenografts; two UM tumor models (Mel270, OMM1.3), 100 mg/kg oral gavage twice daily): reduces | antitumoral profile in OM xenografts (cl-Casp3) (92.1 xenograft): cytostatic profile | FAK activation (pY397-FAK) in UM cells (FAK [2]): inhibited FAK rapidly; also recorded: decrease in pY397-FAK | mRNA of YAP-target genes CTGF and CYR61 (qPCR) [7]: significant reduction | MOB1/LATS interaction [8]: enhanced | p909-LATS1 [8]: increase | p1079-LATS1 [8]: increase | p-MST1 [8]: did not observe an increase | pY26 MOB1 ([8]; 0-10 μM, 2 hr): dose-dependent decrease | YAP phosphorylation on serine 127 (pS127-YAP) ([8]; listed as FAKi): increase | YAP phosphorylation on tyrosine 357 (Y357) ([8]; listed as FAKi): repressed; also recorded: diminished phosphorylation | total YAP protein level ([8]; long-term (up to 36 hours)): downregulation

verteporfin
systemic toxicity [9]: high systemic toxicities

Cc1ccc2c(c1)C(=O)C1(O)CCN(c3ccccc3)C1=N2 (stereo not drawn) [blebbistatin]
FAK activation by Gαq-DREADD in HEK293 cells (FAK [1]): repressed FAK activation | FAK activation (pY397-FAK) in UM cells (FAK [2]): repressed FAK activation

COc1ccc2c(c1)CC[C@@H]1[C@@H]2CC[C@]2(C)[C@@H](NCCCCCCN3C(=O)C=CC3=O)CC[C@@H]12 [U73122]
FAK activation by Gαq-DREADD in HEK293 cells (FAK [1]): did not have an impact | ERK activation by Gαq-DREADD in HEK293 cells (ERK [10]): abolished

C=C1C(=O)N[C@@H](C)C(=O)N(C)[C@@H](C)C(=O)N[C@@H]([C@H](OC(=O)[C@@H](NC(=O)CC)[C@H](O)C(C)C)C(C)C)C(=O)N(C)[C@@H]([C@@H](C)OC)C(=O)O[C@H](C(C)C)[C@H](NC(C)=O)C(=O)O[C@H](Cc2ccccc2)C(=O)N1C [FR900359] (Ac-[X1][dPhLac][NMeDha]A[NMeA][X1](Leu(3R-OH,Nα-propionyl))[NMeT](Me); ester 1-C)
SKCM cell proliferation, result in words [4]: only in UM cells | UM cell viability / proliferation, result in words ([5]; UM cell lines): inhibition of cell proliferation | FAK activation (pY397-FAK) in UM cells (FAK [2]): diminished | ERK activation in UM cells (ERK [11]): diminished

CNS(=O)(=O)Nc1nccc(Cc2c(C)c3ccc(Oc4ncccn4)cc3oc2=O)c1F [CH5126766]
synergy of growth inhibition in combination with FAKi VS-4718 (OM cells; combined with VS-4718): synergistic anti-proliferative effects | synergy of anti-proliferative effect in combination with VS-6063 (defactinib) (OM cells; combined with VS-6063): synergistic anti-proliferative effects
